The conditions of this data set: 25% aqueous ammonia at room temperature.

Take `NCCS(=O)(=O)O` [Taurine, 2-aminoethanesulfonic acid]: the “solubility in 25% aqueous ammonia” value was 36 g in 100 g.

The record behind these values is US11845714B2, “Process for producing taurine” (Vitaworks IP, LLC, priority 2014, dated 2023).
